Source: patent US11339448B2, “Treatment of acute myeloid leukemia” (Ottawa Hospital Research Institute, priority 2018, dated 2022)

Experiments:
Format in all cases: cell-based, human
[1] = system: MTF2 deficient refractory AML cells [MD-AML]; test: Cell viability / apoptosis assay (Annexin V/7-AAD) in primary AML patient cells; conditions: for viability of CD34+CD38− cells from MD-AML patients: 0.5 μM Daunorubicin or 1 μM Cytarabine, over 48 hours; for apoptosis: MD-AML cells, in combination with Cytarabine or Daunorubicin; for sensitivity to Cytarabine / sensitivity to Daunorubicin: MD-AML, comparable to B-AML; for sensitivity to Cytarabine: combination with Cytarabine; for sensitivity to Daunorubicin: combination with Daunorubicin; for apoptosis / apoptotic effect, MDM2 inhibitor alone: treatment alone, over the course of 48 hours
Description: Lin^−CD34^+ primary AML bone marrow cells were maintained in IMDM media containing SCF (100 ng/mL), FLT3 (50 ng/mL), IL-3 (20 ng/mL), G-CSF (20 ng/mL) and 10^−4M Beta-mercaptoethanol^21. Growth factors were purchased from Peprotech. On Day 1 of infection, cells were incubated with polybrene (6 mg/ml) for 2 hours at 37° C., then combined with viral supernatants containing either a GFP-tagged MTF2 overexpression vector clone or an empty vector control at a MOI of 30.
(§1) Apoptosis was assessed in sorted cells by the dual staining of AnnexinV and 7-AAD (eBiosciences). Flow cytometric analyses of treated samples were performed consistently, using the same gating strategy throughout. Viable cells were categorized as being AnnexinV and 7-AAD negative, late apoptotic/dead cells were categorized as being AnnexinV and 7-AAD positive.
(§2) Lin^−CD34^+ cells isolated from either umbilical cord blood or primary AML patient bone marrow aspirates were transduced as above, sorted for GFP^+ and cultured in 96-well plates at 100,000 cells/100 uL/well in duplicates. The drugs Daunorubicin, Cytarabine, Nutlin3a and M1773 were dissolved in DMSO. Cytarabine and Daunorubicin were added at concentrations of 1 μM and 0.5 μM, respectively. After 1 hour of incubation with Daunorubicin, cells were collected and transferred into fresh media to remove Daunorubicin from the media. The MDM2 pathway inhibitors, Nutlin3a and M1773 were added at concentrations of 1 μM.

[2] = system: MTF2 shRNA knockdown (SH3 or SH7) HSPCs; test: Cell cycle (DRAQ5) and PCNA proliferation analysis in HSPCs; conditions: for fraction of viable MTF2-deficient cells that were PCNA+: MTF2-deficient HSPCs, 48 hours post-treatment; for overall PCNA levels (proliferation): MTF2 deficient (SH3 or SH7) HSPCs, 1 μM, 24 hours post-treatment; for population distribution within the cell cycle stages: scramble or MTF2 knockdown HSPCs, 1 μM for 24 hours
Description: (§3) Cells were sorted using cell surface markers, then fixed in 4% PFA, permeabilized with 0.3% Triton and stained for MTF2 (Genway, clone M96), EZH2 (Millipore, clone AC22), SUZ12 (Millipore, clone 2AO9), H3K27me3 (Cell Signaling, clone C36B11), PCNA (Santa Cruz, clone C10), p53 (Cell Signaling, clone 1C12), or MDM2 (Santa Cruz, clone C18) and appropriate secondary antibodies. Protein expression was determined by flow cytometry compared with an isotype-only control and ran on the LSRFortessa™ Cell Analyzer (BD Biosciences). Data analysis was performed using FlowJo v10.2 to compare mean fluorescent intensity values.
(§4) For cell cycle analysis, cells were fixed and stained with DRAQ5 (BD Biosciences) to assess cell cycle state. For assessing p53 signaling and MTF2 rescue experiments, cells were stained with antibodies against p53, MDM2 or H3K27me3 as above and with DRAQ5 for nucleic acid detection. Cells were analyzed using the ImageStream imaging flow cytometer (Amnis). The nuclear contents of each protein were determined using the preset wizard tool “Nuclear Localization”, within the Amnis IDEAS analysis software.
as §2

Lin−CD34+ HSPCs [3] = test: Alkaline comet assay (DNA damage accumulation, Olive moment); conditions: for DNA damage accumulation (Olive moment): scramble vs MTF2 shRNA transduced HSPCs, over a 48-hour period; for DNA damage accumulation: MTF2-deficient HSPCs, in combination with Cytarabine or Daunorubicin
Description: Alkaline comet assays were performed using GelBond Films and buffers were prepared as described^22. Slides were stained with SYBR Gold and imaged using Zeiss Axio2 Imaging inverted microscope equipped with a 5× Plan-NEOFLUAR 0.3NA objective and an AxioCam MRm camera through a FITC-compatible filter. At least 10 random fields containing a minimum of 20 non-overlapping comets in each group total were photographed. Blinded imaging acquisition and analysis was performed using ImageJ software (NIH) and the OpenComet comet assay plugin calculating Olive moment (arbitrary units) on the basis of comet head and tail sizes (measured in pixels) and their integral intensity. The magnitude of these parameters depends on time of electrophoresis, staining brightness and image magnification, which were constant within each assay and between experiments. Comet assays were independently repeated using HSPCs isolated from 3 different UCB samples. Statistical significance was determined by two-way ANOVA using GraphPad Prism software version 6.
as §2

Lin−CD34+ HSPCs [4] = test: Cell viability / apoptosis assay (Annexin V/7-AAD) in shRNA-transduced HSPCs; conditions: for sensitivity to induction therapy drugs (cell viability): MTF2-deficient HSPCs, in combination with Cytarabine or Daunorubicin
Description: HSPCs (Lin^−CD34^+) were maintained in IMDM media containing bovine serum albumin, insulin, and transferrin (Stem Cell Technologies), 1% PenStrep (ThermoFisher), SCF (100 ng/mL), TPO (50 ng/mL), FLT3 (100 ng/mL), 1% Glutamax (InVitrogen), and LDL (1 μg/ml) (Calbiochem). Growth factors were purchased from Peprotech. On Day 1 of infection, cells were incubated with polybrene (Sigma) (6 mg/ml) for 2 hours at 37° C., then combined with viral supernatants containing either a GFP-tagged MTF2 shRNA clone or a scrambled shRNA control (ThermoFisher) at a MOI of 100. Cells were centrifuged at 400 g for 20 minutes, then maintained at 37° C. On Day 2, the infection was repeated. Cells were grown for 3 days using a fed-batch culture system^21, then sorted for high GFP-expression and viability by negative selection of Propidium Iodide using the Beckman Coulter MoFlo sorter.
as §1, §2

MDM2 and p53 levels = test: Imaging flow cytometry of MDM2 and p53 levels in MTF2 knockdown HSPCs; conditions: for MDM2 and p53 levels within the nucleus: MTF2 knockdown (SH3) HSPCs, 1 μM
Description: as §3, §4, §2

[5] = system: p53 levels in Lin−CD34+ leukemic cells (MD-AML); test: Imaging flow cytometry of p53 levels in refractory patient leukemic cells; conditions: Lin−CD34+ leukemic cells from refractory patient BM aspirates (MD-AML)
Description: as §3, §4
Lin^−CD34^+ cells isolated from either umbilical cord blood or primary AML patient bone marrow aspirates were transduced as above, sorted for GFP^+ and cultured in 96-well plates at 100,000 cells/100 uL/well in duplicates. […]

[6] = MTF2 knockdown (SH7) HSPCs, 1 uM

What does the source list for `Nc1ccn([C@@H]2O[C@H](CO)[C@@H](O)[C@@H]2O)c(=O)n1` [Cytarabine]?
viability of CD34+CD38− cells from MD-AML patients [1]: remain viable over 48 hours; fraction of viable MTF2-deficient cells that were PCNA+ [2]: two-thirds; DNA damage accumulation (Olive moment) (Lin−CD34+ HSPCs [3]): highest levels of DNA damage were found in the scramble control HSPCs; viability at 1 µM (Lin−CD34+ HSPCs [4]; Homo sapiens, MTF2 shRNA knockdown HSPCs, 48 hours after treatment (Daunorubicin 0.5 μM or Cytarabine 1 μM), read-out: MTF2-deficient cells viable): > 60%

Which “viability of CD34+CD38− cells from MD-AML patients” value [1] does the source give for `COc1cccc2c1C(=O)c1c(O)c3c(c(O)c1C2=O)C[C@@](O)(C(C)=O)C[C@@H]3O[C@H]1C[C@H](N)[C@H](O)[C@H](C)O1` [Daunorubicin] here?
Its value is “remain viable over 48 hours”.

What about the “fraction of viable MTF2-deficient cells that were PCNA+” value [2] of the same compound?
Its value is “two-thirds”.

What about the “DNA damage accumulation (Olive moment)” value (Lin−CD34+ HSPCs [3]) of the same compound?
Its value is “highest levels of DNA damage were found in the scramble control HSPCs”.

How did the p53 levels (MDM2 and p53 levels; MTF2-deficient HSPCs) turn out when `CC(C)(C)C[C@H]1N[C@@H](C(=O)NC2CCC(O)CC2)[C@H](c2cccc(Cl)c2F)[C@@]12C(=O)Nc1cc(Cl)ccc12` (stereo partly drawn) [MI-773, (2′R,3S,3′S,5′R)-6-chloro-3′-(3-chloro-2-fluorophenyl)-5′-(2,2-dimethylpropyl)-N-(4-hydroxycyclohexyl)-2-oxospiro[1H-indole-3,4′-pyrrolidine]-2′-carboxamide] was run?
The p53 levels was “rescued”.

What about the “MDM2 and p53 levels within the nucleus” value (MDM2 and p53 levels) of the same compound?
The value was “reestablished MDM2 and p53 levels to those observed in the scramble untreated control”.

What about the MDM2 levels (MDM2 and p53 levels; [6]) of the same compound?
The MDM2 levels was “low”.

And the p53 levels (MDM2 and p53 levels; [6])?
Its p53 levels is “restored”.

And the apoptosis [1]?
Its apoptosis is “underwent apoptosis”.

And the “sensitivity to Cytarabine” value ([1]; 48 hours)?
Its value is “increased sensitivity”.

And the “sensitivity to Cytarabine” value ([1]; within 24 hours)?
The value was “increased sensitivity”.

And the “sensitivity to Daunorubicin” value ([1]; 48 hours)?
The value was “increased sensitivity”.

What about the “sensitivity to Daunorubicin” value ([1]; within 24 hours) of the same compound?
The value was “increased sensitivity”.

What about the “apoptosis / apoptotic effect, MDM2 inhibitor alone” value [1] of the same compound?
Its value is “very low apoptotic effect”.

What about the “overall PCNA levels (proliferation)” value [2] of the same compound?
The value was “decrease in overall PCNA levels”.

And the “population distribution within the cell cycle stages” value [2]?
The value was “arresting in G0/G1”.

And the DNA damage accumulation (Lin−CD34+ HSPCs [3])?
The DNA damage accumulation was “same amount of DNA damage accumulation as that found within scramble controls”.

What about the “sensitivity to induction therapy drugs (cell viability)” value (Lin−CD34+ HSPCs [4]) of the same compound?
The value was “sensitized to induction therapy drugs”.

And the p53 levels [5]?
The p53 levels was “rescued”.

How did the p53 levels (MDM2 and p53 levels; MTF2-deficient HSPCs) turn out when `COc1ccc(C2=N[C@@H](c3ccc(Cl)cc3)[C@@H](c3ccc(Cl)cc3)N2C(=O)N2CCNC(=O)C2)c(OC(C)C)c1` [Nutlin3A, 4-[(4S,5R)-4,5-bis(4-chlorophenyl)-2-(4-methoxy-2-propan-2-yloxyphenyl)-4,5-dihydroimidazole-1-carbonyl]piperazin-2-one] was run?
Its p53 levels is “rescued”.

What about the “MDM2 and p53 levels within the nucleus” value (MDM2 and p53 levels) of the same compound?
Its value is “reestablished MDM2 and p53 levels to those observed in the scramble untreated control”.

What about the MDM2 levels (MDM2 and p53 levels; [6]) of the same compound?
The MDM2 levels was “low”.

What about the p53 levels (MDM2 and p53 levels; [6]) of the same compound?
The p53 levels was “restored”.

And the apoptosis [1]?
The apoptosis was “underwent apoptosis”.

What about the “sensitivity to Cytarabine” value ([1]; 48 hours) of the same compound?
The value was “increased sensitivity”.

What about the “sensitivity to Cytarabine” value ([1]; within 24 hours) of the same compound?
The value was “increased sensitivity”.

And the “sensitivity to Daunorubicin” value ([1]; 48 hours)?
The value was “increased sensitivity”.

And the “sensitivity to Daunorubicin” value ([1]; within 24 hours)?
The value was “increased sensitivity”.

What about the “apoptosis / apoptotic effect, MDM2 inhibitor alone” value ([1]; listed as Nutlin3a) of the same compound?
Its value is “very low apoptotic effect”.

What about the “overall PCNA levels (proliferation)” value [2] of the same compound?
The value was “decrease in overall PCNA levels”.

What about the “population distribution within the cell cycle stages” value [2] of the same compound?
The value was “arresting in G0/G1”.

And the DNA damage accumulation (Lin−CD34+ HSPCs [3])?
Its DNA damage accumulation is “same amount of DNA damage accumulation as that found within scramble controls”.

What about the “sensitivity to induction therapy drugs (cell viability)” value (Lin−CD34+ HSPCs [4]) of the same compound?
Its value is “sensitized to induction therapy drugs”.

And the p53 levels [5]?
Its p53 levels is “rescued”.
